In US20080221084A1, “METHOD FOR REDUCING INFARCTION USING VASOPRESSIN ANTAGONIST COMPOUNDS, AND COMPOSITIONS AND COMBINATIONS THEREFOR” (OTSUKA PHARMACEUTICAL CO., LTD., priority 2006, published 2008):

How the values were obtained:
[1] = system: rats with hypotonic hyponatremia (model of SIADH); assay: DDAVP-induced hypotonic hyponatremia in rats (model of SIADH): plasma sodium and osmolarity; assay type: in vivo, rat (male Sprague-Dawley); settings: day 14, end of experiment; DDAVP infused 1 ng/h s.c. for 14 days, liquid diet; Mean ±SD
From the text: The condition of hypotonic hyponatremia was created by infusing a selective vasopressin V2 agonist, DDAVP, into rats using an osmotic minipump implanted subcutaneously for 14 days in animals with access to only liquid food (a model of SIADH: syndrome of inappropriate antidiuretic hormone secretion). […] Rats either received a daily oral administration of tolvaptan or vehicle in an escalating dosing regime.
Tolvaptan was supplied as a spray-dried formulation, which is a mixture of tolvaptan (free form) and hydroxypropylcellulose (HPC-SL) at a ratio of 2:1. Therefore, the amount of tolvaptan (spray-dried form) was 1.5 times that of tolvaptan (free form). Tolvaptan was suspended in 1% hydroxypropylmethylcellulose solution.
The V2 agonist DDAVP ([deamino-Cys1, D-Arg8]-vasopressin was dissolved in saline (2 μg/mL).
Male Sprague-Dawley rats weighing 150-175 grams were used. Rats had access to feed and tap water. From day −3 (see the timeline in FIG. 1), rats were fed with a customized liquid food (RD-LD89 All-Purpose Liquid Diet Premix, Research Diets, Inc, New Brunswick, N.J.) and no additional food or water was provided. The liquid diet was mixed with water according to manufacturer's instructions.
Rats were acclimated for 3 days to liquid food before the study. Hyponatremia was induced by continuous subcutaneous infusion of 1 ng/h of DDAVP per animal using osmotic minipumps (infusion rate: 0.5 μL/h, ALZET model 2002, DURECT Corporation, Cupertino, Calif.) for 14 days (see FIG. 1). On day 0 when the osmotic minipump was implanted, rats were anesthetized by an intraperitoneal injection of a mixture of ketamine (40 mg/kg) and xylazine (5 mg/kg). The following procedure of implanting minipumps was performed using aseptic techniques. An area 4 cm long and 3 cm wide on the back of the animal (slightly posterior to the scapulae) was shaved and cleaned. A 1 cm cross mid-scapular incision was made. A hemostat was inserted into the incision and a pocket for the pump was created by opening and closing the jaw of the hemostat to spread the subcutaneous tissue. The pump (length 3 cm, diameter 0.7 cm and 0.4 grams) was inserted into the pocket, delivery portal first. The wound was closed with wound clips, and animals were placed on a heating pad for recovery, and eventually returned back to the cage.
On day 2 after the surgery, animals were switched to a nutritionally complete liquid food diet containing 14% dextrose (see FIG. 1). No additional water or solid food was provided.
Starting from day 4, an escalating dosing regime of tolvaptan or vehicle was used from 0.25 mg/kg to 10 mg/kg daily.

[2] = system: regional cardiac ischemia/reperfusion in rat heart; assay: 20 minutes regional cardiac ischemia and 3 hours reperfusion in hyponatremic rats: myocardial infarction, risk size, hemodynamics; assay type: in vivo, rat (male Sprague-Dawley); settings: 20 min regional ischemia, 3 h reperfusion on day 14, compared with saline-infused or vehicle-treated rats, TTC staining
From the text: The condition of hypotonic hyponatremia was created by infusing a selective vasopressin V2 agonist, DDAVP, into rats using an osmotic minipump implanted subcutaneously for 14 days in animals with access to only liquid food (a model of SIADH: syndrome of inappropriate antidiuretic hormone secretion). Control rats had the same surgical implantation of an osmotic minipump filled with saline. Rats either received a daily oral administration of tolvaptan or vehicle in an escalating dosing regime. At the end of the 14-day period, rats were subjected to 20 minutes of regional cardiac ischemia and 3 hours of reperfusion, and myocardial infarction was determined. At the final day of the study (day 14), rats were anesthetized, and the chest was open. Hearts were subjected to 20 minutes of regional ischemia followed by 3 hours of reperfusion. On day 14, rats were anesthetized with pentobarbital (30 mg/kg) by an intraperitoneal injection. Once anesthesia was induced, a tracheotomy was performed, and the trachea was cannulated and the animal was attached to a respirator. An oxygen supplement was fed into the tracheal line to maintain the pO2 above 100 mmHg. A cannula was inserted into the right carotid artery to monitor blood pressure and heart rate. The heart was exposed through a left thoracotomy in the fourth intercostal space, and the pericardium opened. A snare was placed around a major branch of the left coronary artery of the animal using a 5-0 suture. The suture ends were passed through a small segment of pliable polyethylene tubing to form a snare. Regional ischemia was induced by pulling the silk tightly through the tubing and clamping the tube with a hemostat. Experiments involved 20 minutes of ischemia and 3 hr reperfusion, which was achieved by releasing the snare. Myocardial ischemia and reperfusion were confirmed by the observation of regional cyanosis and hyperemia, respectively. […] Infarct size was determined by planimetry and expressed as a percentage of risk area infarcted. Data were expressed as the Mean ±SD (standard deviation). […]

| SMILES | plasma osmolarity [1] [mOsm/kg] | plasma sodium [1] [mmol/L] | myocardial infarct size (percentage of risk area infarcted) [2] | myocardial infarct size (percentage of risk area infarcted) ([2]; listed as tolvaptan) |
| --- | --- | --- | --- | --- |
| NC(=O)CC[C@@H]1NC(=O)[C@H](Cc2ccccc2)NC(=O)[C@H](Cc2ccc(O)cc2)NC(=O)CCSSC[C@@H](C(=O)N2CCC[C@H]2C(=O)N[C@H](CCCN=C(N)N)C(=O)NCC(N)=O)NC(=O)[C@H](CC(N)=O)NC1=O [DDAVP, [deamino-Cys1, D-Arg8]-vasopressin] | 264±6 | 114 ± 7 | more than double |  |
| Cc1ccccc1C(=O)Nc1ccc(C(=O)N2CCCC(O)c3cc(Cl)ccc32)c(C)c1 (stereo not shown) [Tolvaptan, 7-chloro-5-hydroxy-1-[2-methyl-4-(2-methylbenzoyl-amino)benzoyl]-2,3,4,5-tetrahydro-1H-benzazepine] | 304±8 | 140 ± 3 | reduced the infarct size in DDAVP-infused rats to a level similar to that in saline-infused rats | much smaller degree as compared with that in vehicle-treated rats |
